Data reported in PMC3317675 (International Journal of Molecular Sciences, 2012).

Columns and labels:
mGAT1 [1] = molecular target: T1, mGAT1 (Mus musculus, UniProt P31648); test: [3H]GABA uptake inhibition, stable CHO cells; format: cell-based; design: gene Slc6a1; full-length ORF in pcDNA3; no tag mentioned
mGAT3 [2] = molecular target: T2, mGAT3 (Mus musculus, UniProt P31650); test: [3H]GABA uptake inhibition, stable CHO cells; format: cell-based; design: gene Slc6a11; RIKEN FANTOM cDNA in pcDNA3; no tag mentioned
T2 sequence (P31650 1-627): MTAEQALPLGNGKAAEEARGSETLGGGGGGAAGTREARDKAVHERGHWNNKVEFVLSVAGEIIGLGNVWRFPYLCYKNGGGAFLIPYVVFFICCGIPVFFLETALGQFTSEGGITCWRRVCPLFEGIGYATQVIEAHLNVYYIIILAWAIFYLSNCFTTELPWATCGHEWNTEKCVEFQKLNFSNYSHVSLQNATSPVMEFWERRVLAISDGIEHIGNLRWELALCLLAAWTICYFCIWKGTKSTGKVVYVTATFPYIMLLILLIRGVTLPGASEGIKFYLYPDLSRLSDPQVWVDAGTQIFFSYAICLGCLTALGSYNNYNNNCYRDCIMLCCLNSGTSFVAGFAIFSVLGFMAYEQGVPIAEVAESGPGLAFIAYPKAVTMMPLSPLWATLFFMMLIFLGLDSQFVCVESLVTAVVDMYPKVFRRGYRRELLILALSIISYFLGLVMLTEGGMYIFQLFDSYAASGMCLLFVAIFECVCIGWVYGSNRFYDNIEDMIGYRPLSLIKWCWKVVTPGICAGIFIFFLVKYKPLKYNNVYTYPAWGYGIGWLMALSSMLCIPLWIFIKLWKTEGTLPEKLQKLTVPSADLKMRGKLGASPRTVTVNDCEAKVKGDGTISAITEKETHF

mGAT2 [3] = molecular target: T3, mGAT2 (Mus musculus, UniProt P31649); test: [3H]GABA uptake inhibition, stable CHO cells; format: cell-based; design: gene Slc6a13; RIKEN FANTOM cDNA in pcDNA3; no tag mentioned
T3 sequence (P31649 1-602): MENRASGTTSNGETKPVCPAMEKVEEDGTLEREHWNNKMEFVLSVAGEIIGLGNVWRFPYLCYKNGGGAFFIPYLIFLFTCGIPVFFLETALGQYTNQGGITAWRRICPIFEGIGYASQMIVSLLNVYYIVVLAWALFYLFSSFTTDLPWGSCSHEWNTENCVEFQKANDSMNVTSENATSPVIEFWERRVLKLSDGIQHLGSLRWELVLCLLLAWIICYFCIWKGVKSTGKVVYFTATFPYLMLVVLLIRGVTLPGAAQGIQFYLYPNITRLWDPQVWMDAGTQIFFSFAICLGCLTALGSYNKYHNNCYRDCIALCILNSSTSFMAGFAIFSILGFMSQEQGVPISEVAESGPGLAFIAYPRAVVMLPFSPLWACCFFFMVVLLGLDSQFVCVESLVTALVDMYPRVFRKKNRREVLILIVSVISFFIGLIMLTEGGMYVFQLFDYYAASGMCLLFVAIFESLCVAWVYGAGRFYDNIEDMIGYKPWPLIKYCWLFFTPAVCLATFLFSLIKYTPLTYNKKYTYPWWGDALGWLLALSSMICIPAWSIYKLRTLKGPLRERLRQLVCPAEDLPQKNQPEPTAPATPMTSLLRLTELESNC

rSERT = molecular target: T4, rSERT (Rattus norvegicus, UniProt P31652); test: [3H]5-HT uptake inhibition, stable CHO cells; format: cell-based
T4 construct: gene Slc6a4; previously cloned cDNA; no tag mentioned

mGAT2 [4] = molecular target: T3, mGAT2; test: cell-based; design: gene Slc6a13
Source text: (§1) Those were designated CHO/mGAT1, CHO/mGAT2, CHO/mGAT3 and CHO/mBGT1. […] For uptake assays in cell lines stably expressing mouse GATs, CHO cells were transfected with cDNA using FuGENE6 transfection reagent according to the manufacturer’s directions, and subsequently cultured in the medium containing G418 to select positive clones.

mGAT3 [5] = molecular target: T2, mGAT3; test: cell-based; design: gene Slc6a11
Source text: as §1

mGAT1 [6] = molecular target: T1, mGAT1; test: cell-based; design: gene Slc6a1
Source text: as §1

T4 sequence (P31652 whole entry): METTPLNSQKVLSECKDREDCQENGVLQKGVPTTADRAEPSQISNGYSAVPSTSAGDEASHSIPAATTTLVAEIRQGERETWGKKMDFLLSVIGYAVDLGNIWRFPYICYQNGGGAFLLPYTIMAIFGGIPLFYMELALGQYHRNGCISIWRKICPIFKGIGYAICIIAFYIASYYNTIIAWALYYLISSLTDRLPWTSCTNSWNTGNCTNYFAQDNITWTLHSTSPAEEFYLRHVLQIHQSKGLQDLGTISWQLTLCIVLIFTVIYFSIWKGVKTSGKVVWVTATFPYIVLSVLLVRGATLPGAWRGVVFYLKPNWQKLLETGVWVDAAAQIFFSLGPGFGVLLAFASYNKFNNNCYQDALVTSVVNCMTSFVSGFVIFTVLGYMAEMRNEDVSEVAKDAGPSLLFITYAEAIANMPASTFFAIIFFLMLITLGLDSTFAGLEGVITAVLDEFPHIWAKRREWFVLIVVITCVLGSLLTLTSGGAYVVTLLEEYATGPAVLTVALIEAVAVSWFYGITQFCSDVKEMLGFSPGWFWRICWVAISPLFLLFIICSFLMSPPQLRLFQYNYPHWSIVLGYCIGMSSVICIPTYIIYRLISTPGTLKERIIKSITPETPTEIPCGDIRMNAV

| SMILES | IC50 (mGAT1 [1]) [µM] | IC50 (mGAT3 [2]) [µM] | IC50 (mGAT2 [3]) [µM] | IC50 (rSERT) [µM] | IC50 (mGAT2 [4]) [µM] | IC50 (mGAT3 [5]) [µM] | IC50 (mGAT1 [6]) [µM] |
| --- | --- | --- | --- | --- | --- | --- | --- |
| CC(CN(C)C)CN1c2ccccc2CCc2ccccc21 (stereo not shown) [Trimipramine] | 181 ± 72.9 | 64.6 | 85.6 | 5.89 |  |  |  |
| NCCC(=O)O [β-Alanine] |  |  |  |  | 25 | 18 | > 300 |
| CNCCC=C1c2ccccc2CCc2ccccc21 [Nortriptyline] | 136 ± 21.9 | 74.1 | 87.1 |  |  |  |  |
| CNCCCC1c2ccccc2C=Cc2ccccc21 [Protriptyline] | 167 ± 22.1 | 113 | 77.2 |  |  |  |  |
| C[N+](C)(C)CC(=O)O [Betaine] |  |  |  |  | > 10000 | > 10000 | > 10000 |
| CN(C)CCCN1c2ccccc2CCc2ccccc21 [Imipramine] | 223 ± 58.5 | 108 | 106 |  |  |  |  |
| CN(C)CCC=C1c2ccccc2CCc2ccccc21 [Amitriptyline] | 101 ± 11.7 | 61.5 | 45.8 |  |  |  |  |
| CNCCCN1c2ccccc2CCc2ccccc21 [Desipramine] | 268 ± 36.7 | 80.3 | 123 |  |  |  |  |
